Where no end group is shown, it is not given here. The star is where a group is joined. Dansyl = CN(C)c1cccc2c(S(=O)(=O)*)cccc12
Experiments:
collagen [1] = target: T1, collagen (Bos taurus, UniProt P02453+P02465); assay: Collagen fibrillogenesis by turbidity at 313 nm; format: biochemical; conditions: 4 mg/mL collagen, 10:1 collagen:treatment unless otherwise indicated
T1 construct: purchased Inamed, Freemont, Calif; (Nutragen)
Method: Collagen fibrillogenesis was monitored by measuring turbidity related absorbance at 313 nm providing information on rate of fibrillogenesis and fibril diameter. Gel solutions were prepared as described in EXAMPLE 15 (4 mg/mL collagen, 10:1 collagen:treatment, unless otherwise indicated) and 50 uL/well were added at 4° C. to a 384-well plate. The plate was kept at 4° C. for 4 hours before initiating fibril formation. A SpectraMax M5 at 37° C. was used to measure absorbance at 313 nm at 30 s intervals for 6 hours.
A fibrillogenesis assay as described for DS-SILY, EXAMPLE 17, performed with the conjugate DS-Dc13.

HCA SMCs = assay: Elastin measurement by Fastin assay; format: cell-based, Human; conditions: gels cultured for 10 days
Method: Collagen gels seeded with HCA SMCs were prepared as described in EXAMPLE 25. Differentiation medium was changed every three days and gels were cultured for 10 days. Collagen gels containing no cells were used as a control. Gels were rinsed in 1×PBS overnight to remove serum protein, and gels were tested for elastin content using the Fastin elastin assay per manufacturers protocol (Biocolor, County […].). Briefly, gels were solubilized in 0.25 M oxalic acid by incubating at 100° C. for 1 hr. Elastin was precipitated and samples were then centrifuged at 11,000×g for 10 min. The solubilized collagen supernatant was removed and the elastin pellet was stained by Fastin Dye Reagent for 90 min at room temperature. Samples were centrifuged at 11,000×g for 10 min and unbound dye in the supernatant was removed. Dye from the elastin pellets was released by the Fastin Dye Dissociation Reagent, and 100 μL samples were transferred to a 96-well plate (Costar). Absorbance was measured at 513 nm, and elastin content was calculated from an α-elastin standard curve.

collagen [2] = target: T1, collagen; assay: Cryo-SEM measurement of fibril density; conditions: 10:1 molar ratio, cryo-SEM 10,000×
Method: Collagen gels were formed in the presence of each additive at a 10:1 molar ratio, as described in EXAMPLE 15, directly on the SEM stage, processed, and imaged as described. Images at 10,000× were analyzed for fibril density calculations. Images were converted to 8-bit black and white, and threshold values for each image were determined using ImageJ software (NIH). The threshold was defined as the value where all visible fibrils are white, and all void space is black. The ratio of white to black area was calculated using MatLab software. All measurements were taken in triplicate and thresholds were determined by an observer blinded to the treatment.

[3] = system: Human platelets on Type I fibrillar collagen; assay: Inhibition of platelet activation on fibrillar collagen after 24 hour rinse (PF4, NAP2); format: cell-based; conditions: 50 μM, incubated 15 min, rinsed for 24 hours
Method: Type I fibrillar collagen from Chronolog was diluted in isotonic glucose to a concentration of 50 μg/mL. 50 μL of collagen solution was added to each well of a high bind 96-well plate. The plate was incubated overnight at 4° C., and then rinsed 3× with 1×PBS. For microplate assays, peptidoglycan was diluted in 1×PBS at concentrations between 0.0001 μM to 100 μM and 50 μL solution was added to the collagen coated wells. DS, peptide, or 1×PBS were also added to collagen coated wells as controls. Treatments were incubated at 37° C. with shaking at 200 rpm for 15 min. Wells were then rinsed of unbound treatment by removing the treatment solution, adding PBS, and shaking the wells for 24 hours. During the 24 hours, PBS solution was changed 3 times.
Human whole blood was collected from healthy volunteers by venipuncture. The first 5 mL of blood was discarded and approximately 20 mL was then collected into citrated glass vacutainers (BD Bioscience). Blood was centrifuged in the glass tube for 20 min at 200 g at 25° C. The top layer of the centrifuged blood, the platelet rich plasma (PRP), was used for platelet experiments.
PRP (50 μL/well) was added to the microplate for 1 hour at room temperature without shaking. After 1 hour of incubation, 45 μL of PRP was removed from each well and added to a microcentrifuge tube containing […] ETP (107 mM EDTA, 12 mM theophylline, and 2.8 mM prostaglandin E1) to inhibit further platelet activation. These tubes were spun at 4° C. for 30 min at 2000 g to pellet the platelets. The supernatant (platelet serum) was collected for ELISA studies to test for the presence of platelet activation markers PF-4 and NAP2. Sandwich ELISAs were utilized in order to detect each protein. The components for both sandwich ELISAs were purchased from R&D Systems and the provided protocols were followed. Platelet serum was diluted 10,000 times in 1% BSA in 1×PBS for values to fall within a linear range.
Platelet activation was measured through release of platelet factor 4 (PF4) and β-thromboglobulin (NAP2). […] Since the high SILY/DS ratio is expected to provide higher binding affinity to the collagen surface due to multiple interactions, peptidoglycans with the higher SILY/DS ratios were prepared.
The number of peptides per DS molecule was further increased to 18 to create the peptidoglycan DS-SILY18, and the concentration of molecule needed to inhibit platelet activation was tested. […] Within solubility limits, the number of peptides can be increased to achieve maximal platelet inhibition as well as to reduce diffusion over time, where a higher level of peptidoglycans on the denuded vessel wall is sustained.

[4] = system: Human platelet-rich plasma on fibrillar collagen; assay: Platelet binding to collagen under flow; format: cell-based; conditions: 50 μM for 15 min; 2 mL/hr for 1 hour, shear rate 355 s^−1
Method: To mimic physiologic conditions with flowing blood, platelet binding to collagen surfaces under flow conditions was evaluated. Flow kits were obtained from Ibidi (Munchen, Germany). Each channel was coated with fibrillar collagen (Chronolog). Excess collagen was removed from the flow channel by pushing 1×PBS through the channel with a syringe. DS-SILY18 was incubated in the channel at a concentration of 50 μM for 15 min at 37° C., and unbound peptidoglycan was rinsed by pushing 1×PBS through the channel with a syringe. The control channel consisted of collagen not treated with peptidoglycan.
Platelet rich plasma was pushed through the channels at 2 mL/hr for 1 hour, corresponding to a shear stress of 3.55 dynes/cm^2 and a shear rate of 355 s^−1. Unbound platelets were rinsed from the channel by pushing through 1×PBS. Adhered platelets were fixed in the channel with 10% formaldehyde. Platelets were permeabilized and actin filaments were stained with phalloidin-Alexa Fluor 488 (Invitrogen).

Monomeric collagen = target: T2, Monomeric collagen (Bos taurus, UniProt P02453+P02465); assay: Fluorescence binding of dansyl-labeled DS-peptide conjugates to immobilized collagen; conditions: 100 μM to 10 nM; 30 min at 37° C.
T2 construct: purchased Advanced Biomatrix 5010
Method: In order to determine whether the peptide conjugate maintained its ability to bind to collagen after its conjugation to DS, a fluorescent binding assay was performed. A fluorescently labeled version of SILY, Z-SILY, was synthesized by adding dansylglycine to the amine terminus. This peptide was conjugated to DS and purified using the same methods described for SILY.
Binding assays were done in a 96-well high binding plate, black with a clear bottom (Costar). Collagen was compared to untreated wells and BSA coated wells. Monomeric collagen (Advanced Biomatrix Cat. No. 5010) and BSA were immobilized at 37° C. for 1 hr by incubating 90 μL/well at concentrations of 2 mg/mL in 10 mM HCl and 1×PBS respectively. Each well was washed 3× with 1×PBS after incubating.
Wells were preincubated with DS at 37° C. for 30 min to eliminate nonspecific binding of DS to collagen. Wells were rinsed 3× with 1×PBS before incubating with DS-Z-SILY. […] Fluorescence readings were taken on an M5 Spectramax Spectrophotometer (Molecular Devices) at excitation/emission wavelengths of 335 nm/490 nm, respectively.
Fluorescence binding of DS-Z-SILY on immobilized collagen, BSA, and untreated wells are compared in FIG. 7. […]
The fluorescence binding assays described for DS-ZSILY was performed with peptide sequence ZSYIRIADTNITGC (ZDc13) (SEQ ID NO: 30).

[5] = system: Human coronary artery smooth muscle cells (HCA SMC); assay: Gel compaction by smooth muscle cells in collagen gels; format: cell-based; conditions: Day 7
Method: Human coronary artery smooth muscle cells (HCA SMC) (Cascade Biologics) were cultured in growth medium (Medium 231 supplemented with smooth muscle growth factor). Cells from passage 3 were used for all experiments. Differentiation medium (Medium 231 supplemented with 1% FBS and 1×pen/strep) was used for all experiments unless otherwise noted.
Collagen gels were prepared with each additive as described with the exception that the 1×PBS sample addition was omitted to accommodate the addition of cells in media. After incubating on ice for 30 min, HCA SMCs in differentiation medium were added to the gel solutions to a final concentration of 1×10^6 cells/mL. Gels were formed in quadruplicate in 48-well non-tissue culture treated plates (Costar) for 6 hrs before adding 500 μL/well differentiation medium. Gels were freed from the well edges after 24 hrs. Medium was changed every 2-3 days and images for compaction were taken at the same time points using a Gel Doc System (Bio-Rad). The cross-sectional area of circular gels correlating to degree of compaction was determined using ImageJ software (NIH). Gels containing no cells were used as a negative control and cells in collagen gels absent additive were used as a positive control. By day 10 all gels had compacted to approximately 10% of the original gel area, and differences between additives were small.

collagen [6] = target: T1, collagen; assay: Viscoelastic characterization of collagen gels containing Dc13 or DS-Dc13; conditions: varying ratios of collagen to additive
Method: Collagen gels were prepared, as in EXAMPLE 15. Viscoelastic characterization was performed as described in EXAMPLE 16 on gels formed with varying ratios of collagen to additive (treatment).

T1 sequence (P02453 162-1217 limits assumed): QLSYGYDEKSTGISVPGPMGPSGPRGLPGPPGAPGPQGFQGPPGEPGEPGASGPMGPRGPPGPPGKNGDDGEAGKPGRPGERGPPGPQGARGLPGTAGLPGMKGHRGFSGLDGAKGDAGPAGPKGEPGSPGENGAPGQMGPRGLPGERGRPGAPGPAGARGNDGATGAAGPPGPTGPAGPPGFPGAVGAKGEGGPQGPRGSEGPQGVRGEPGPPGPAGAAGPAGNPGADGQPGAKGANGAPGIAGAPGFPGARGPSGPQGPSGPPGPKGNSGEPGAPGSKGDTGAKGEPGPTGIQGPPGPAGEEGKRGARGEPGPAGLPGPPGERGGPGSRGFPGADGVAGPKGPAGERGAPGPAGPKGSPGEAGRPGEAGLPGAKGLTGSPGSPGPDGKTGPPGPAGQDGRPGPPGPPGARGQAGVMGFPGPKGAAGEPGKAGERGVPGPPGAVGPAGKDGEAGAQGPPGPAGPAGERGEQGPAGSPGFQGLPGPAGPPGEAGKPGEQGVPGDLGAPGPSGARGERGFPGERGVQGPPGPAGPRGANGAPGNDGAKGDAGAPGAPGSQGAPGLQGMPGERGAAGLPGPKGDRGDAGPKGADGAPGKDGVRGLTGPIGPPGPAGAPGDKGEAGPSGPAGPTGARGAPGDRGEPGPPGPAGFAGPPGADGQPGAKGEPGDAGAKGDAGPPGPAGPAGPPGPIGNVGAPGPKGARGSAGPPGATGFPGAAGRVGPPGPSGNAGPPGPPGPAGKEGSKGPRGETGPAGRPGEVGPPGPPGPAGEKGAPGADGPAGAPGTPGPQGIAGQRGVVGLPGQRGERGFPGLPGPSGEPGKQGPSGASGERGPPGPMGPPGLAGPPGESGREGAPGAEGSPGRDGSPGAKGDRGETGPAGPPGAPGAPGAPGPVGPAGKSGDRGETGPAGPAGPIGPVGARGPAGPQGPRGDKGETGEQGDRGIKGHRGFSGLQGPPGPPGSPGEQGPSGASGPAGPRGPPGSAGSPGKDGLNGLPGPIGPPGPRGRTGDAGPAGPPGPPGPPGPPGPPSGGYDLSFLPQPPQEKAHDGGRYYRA
T1 sequence (P02465 80-1117 limits assumed): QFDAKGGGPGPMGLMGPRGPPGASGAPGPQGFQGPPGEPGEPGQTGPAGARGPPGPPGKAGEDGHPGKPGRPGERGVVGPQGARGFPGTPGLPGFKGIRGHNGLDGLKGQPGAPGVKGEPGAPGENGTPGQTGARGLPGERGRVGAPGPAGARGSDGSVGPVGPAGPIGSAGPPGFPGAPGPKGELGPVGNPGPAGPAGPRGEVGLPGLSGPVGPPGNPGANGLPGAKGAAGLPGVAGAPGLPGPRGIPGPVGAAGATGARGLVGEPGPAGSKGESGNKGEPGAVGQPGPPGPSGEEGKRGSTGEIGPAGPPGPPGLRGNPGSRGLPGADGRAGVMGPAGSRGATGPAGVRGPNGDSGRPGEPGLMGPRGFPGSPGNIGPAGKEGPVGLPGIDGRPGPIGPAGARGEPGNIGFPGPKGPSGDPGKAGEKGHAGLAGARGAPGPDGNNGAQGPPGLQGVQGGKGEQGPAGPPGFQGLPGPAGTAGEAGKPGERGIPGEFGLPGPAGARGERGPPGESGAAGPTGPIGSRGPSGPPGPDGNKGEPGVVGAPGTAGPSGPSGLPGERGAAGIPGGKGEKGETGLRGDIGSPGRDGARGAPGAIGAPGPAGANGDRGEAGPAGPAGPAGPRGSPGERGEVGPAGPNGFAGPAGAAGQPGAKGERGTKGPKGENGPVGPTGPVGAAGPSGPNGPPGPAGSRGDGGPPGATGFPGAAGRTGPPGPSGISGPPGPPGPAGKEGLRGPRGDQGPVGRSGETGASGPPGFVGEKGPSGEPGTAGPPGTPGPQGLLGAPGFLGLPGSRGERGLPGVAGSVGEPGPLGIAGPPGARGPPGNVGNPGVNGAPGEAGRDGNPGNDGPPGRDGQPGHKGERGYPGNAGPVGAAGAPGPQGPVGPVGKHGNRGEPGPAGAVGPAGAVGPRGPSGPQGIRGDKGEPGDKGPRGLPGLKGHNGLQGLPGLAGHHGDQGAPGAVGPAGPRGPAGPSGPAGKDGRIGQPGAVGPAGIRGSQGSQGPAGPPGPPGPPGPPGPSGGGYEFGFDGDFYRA
T2 sequence (P02453 162-1217 limits assumed): as the sequence (P02453 162-1217 limits assumed) above
T2 sequence (P02465 80-1117 limits assumed): as the sequence (P02465 80-1117 limits assumed) above

Row | Substance | fibrillogenesis (absorbance at 313 nm) (collagen [1]) | elastin production (HCA SMCs) | fibril density (ratio of fibril containing area to void space) (collagen [2]) | inhibition of platelet activation (release of PF4 and NAP2) [3] | platelets bound to collagen under flow [4] | fluorescence binding to collagen versus BSA and untreated wells (Monomeric collagen) | gel compaction, day 7 [5] | stiffness (storage modulus G′) of collagen gel (collagen [6])
1 | DS-SILY: dermatan sulfate-RRANAALKAGELYKSILYGC conjugate; SILY/DS ratio 1.06 in Example 2, varied ratios in Example 36 (RRANAALKAGELYKSILYGC-NH2; not fully specified (residue 20); also: dermatan sulfate conjugate, SILY/DS ratio 1.06 or varied) | decreases the rate of fibrillogenesis | significantly increased elastin production over all samples | significantly greater fibril density | able to inhibit collagen mediated platelet activation | significantly fewer bound platelets on the peptidoglycan treated surface | – | – | –
2 | DS-Z-SILY: dermatan sulfate conjugated to Z-SILY (Dansyl-GRRANAALKAGELYKSILYGC-NH2; also: dermatan sulfate conjugate) | – | – | – | – | – | binds specifically to the collagen-treated wells over BSA and untreated wells | – | –
3 | dermatan sulfate [DS] | – | significantly decreased elastin production over untreated collagen | – | little to no effect on inhibiting platelet activation | – | – | significant compared to collagen | increase the stiffness of the resulting collagen gel over untreated collagen

Source: patent US20180030091A1, “COLLAGEN-BINDING SYNTHETIC PEPTIDOGLYCANS FOR USE IN VASCULAR INTERVENTION” (Purdue Research Foundation, priority 2010, published 2018)
